Laboratory results as given in patent US20060100258A1, “Growth promotion method” (priority 2003, published 2006).

Tests used:
Format in all cases: in vivo
day-old broiler chicks = assay: Determination of dose range: maximum tolerated oral dose in day-old broiler chicks
Method: (§1) Day-old chicks were orally administered Iksin in DMSO at 100 μg/g, 125 μg/g, 150 μg/g and 200 μg/g body weight and in Distilled Water (DW)/5% Tween-20 at 100 μg/g, 200 μg/g, 400 μg/g and 500 μg/g body weight.
The maximum tolerated oral dose of Iksin for day-old broiler chicks was 200 μg/g Iksin/DMSO and ≧500 μg/g in DW/T20.

[1] = Plasma/blood levels of Iksin in chicks after a single oral dose; conditions: for peak levels (blood/plasma): observed at 48 h (FIG. 1)
Method: FIG. 1 is a graph showing plasma levels of Iksin in chicks after treatment with Iksin at 100 μg/g in DMSO and at 400 μg/g in distilled water/Tween20; and
as §1

chicks = assay: Effect on chick growth: weight gain after a single treatment
Method: FIG. 2 is a graph showing the average percentage weight increase in chicks after single dosing with Iksin at 12 μg/g in DMSO, 100 μg/g in DMSO, 200 μg/g in distilled water/Tween20 and 400 μg/g in distilled water/tween20 compared to untreated chicks.
as §1
Treatment with Iksin 12 μg/g DMSO, 200 and 400 μg/g DW/T20 gave a mean weight gain of 17%.

SMILES: C/C(=C\c1ccc2c(c1)OCO2)[N+](=O)[O-] [Iksin, 3,4-methylenedioxy-β-methyl-β-nitrostyrene]
- maximum tolerated oral dose (day-old broiler chicks; Iksin in DMSO): 200 µg/g
- maximum tolerated oral dose (day-old broiler chicks; Iksin in DW/T20 (distilled water/5% Tween-20)): ≥ 500 µg/g
- Iksin blood levels ([1]; single oral dose 12 μg/g DMSO): below the limits of detection
- peak levels (blood/plasma) ([1]; single oral dose 100 μg/g DMSO): 850 µg/g
- Iksin blood levels ([1]; single oral dose 200 μg/g DW): below the limits of detection
- peak levels (blood/plasma) ([1]; single oral dose 400 μg/g DW): 850 µg/g
- absorption from a single oral dosing ([1]; single oral dosing): Very little Iksin was absorbed
- weight gain in chicks (chicks; all doses and formulations, 4 days after a single treatment (FIG. 2)): increased weight gain
- mean weight gain (chicks; chicks, Iksin 12 μg/g DMSO, 200 and 400 μg/g DW/T20 (mean of these groups), 4 days after a single treatment): 17%
- increase in weight gain over the group of control chicks (chicks; chicks, Iksin 100 μg/g DMSO, 4 days after a single treatment): 32%
